From patent publication US20220281848A1, “PYRAZOLE-SUBSTITUTED PYRROLIDINONES AS HERBICIDES” (FMC Corporation, priority 2019, published 2022)

Tests used:
[1] = system: velvetleaf (Abutilon theophrasti, ABUTH); experiment: Test A pre-emergence, velvetleaf; assay type: in vivo; conditions: after 13 d
How it was run: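 Values are percent plant damage 13 d after a pre-emergence spray (15.625, 62.5 or 250 g/ha; acetone/water with 0.5% Tween 20) applied to pots one day post-sowing, under glasshouse conditions of 24/16° C. and twice-daily watering.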

plants = experiment: Test D post-emergence, other plants of Tables D2 and D4; assay type: in vivo; conditions: for ALOMY damage rating (100=total damage to plant; 0=no damage to plant) / AVEFA damage rating (100=total damage to plant; 0=no damage to plant) / BEAVA damage rating (100=total damage to plant; 0=no damage to plant) / BROTE damage rating (100=total damage to plant; 0=no damage to plant) / BRSNN damage rating (100=total damage to plant; 0=no damage to plant) / CHEAL damage rating (100=total damage to plant; 0=no damage to plant) / GALAP damage rating (100=total damage to plant; 0=no damage to plant) / HORVW damage rating (100=total damage to plant; 0=no damage to plant) / KCHSC damage rating (100=total damage to plant; 0=no damage to plant) / LOLPE damage rating (100=total damage to plant; 0=no damage to plant) / POAAN damage rating (100=total damage to plant; 0=no damage to plant) / POLCO damage rating (100=total damage to plant; 0=no damage to plant) / SINAR damage rating (100=total damage to plant; 0=no damage to plant) / STEME damage rating (100=total damage to plant; 0=no damage to plant) / VERPE damage rating (100=total damage to plant; 0=no damage to plant): "Cereals" Postemergent, evaluated after 15 d; for damage to plant (100=total damage to plant; 0=no damage to plant), ABUTH: post-emergence
How it was run: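 Seeds treated with herbicide safener; sown in soil; glasshouse, 16 h light, 65% humidity. Sprayed day 1 (pre) or ~day 12 (post). Spray in 0.2% v/v adjuvant. Scored 0–100 damage: 20 DAA pre, 15 d post.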

Compound: CN1CC(c2cc(C(F)(F)F)n(C)n2)C(C(=O)Nc2cccc(F)n2)C1=O (racemic) [Compound 24]
- damage to plant (100=total damage; 0=no damage) ABUTH ([1]; Pre-Emergence at 15.625 g/ha): 0
- damage to plant (100=total damage; 0=no damage) ABUTH ([1]; Pre-Emergence at 62.5 g/ha): 0
- damage to plant (100=total damage; 0=no damage) ABUTH ([1]; Pre-Emergence at 250 g/ha): 0
- ALOMY damage rating (100=total damage to plant; 0=no damage to plant) (plants; Rates 130): 0
- ALOMY damage rating (100=total damage to plant; 0=no damage to plant) (plants; Rates 250): 0
- ALOMY damage rating (100=total damage to plant; 0=no damage to plant) (plants; Rates 500): 0
- AVEFA damage rating (100=total damage to plant; 0=no damage to plant) (plants; Rates 130): 0
- AVEFA damage rating (100=total damage to plant; 0=no damage to plant) (plants; Rates 250): 0
- AVEFA damage rating (100=total damage to plant; 0=no damage to plant) (plants; Rates 500): 0
- BEAVA damage rating (100=total damage to plant; 0=no damage to plant) (plants; Rates 130): 0
- BEAVA damage rating (100=total damage to plant; 0=no damage to plant) (plants; Rates 250): 0
- BEAVA damage rating (100=total damage to plant; 0=no damage to plant) (plants; Rates 500): 0
- BROTE damage rating (100=total damage to plant; 0=no damage to plant) (plants; Rates 130): 0
- BROTE damage rating (100=total damage to plant; 0=no damage to plant) (plants; Rates 250): 0
- BROTE damage rating (100=total damage to plant; 0=no damage to plant) (plants; Rates 500): 0
- BRSNN damage rating (100=total damage to plant; 0=no damage to plant) (plants; Rates 130): 0
- BRSNN damage rating (100=total damage to plant; 0=no damage to plant) (plants; Rates 250): 0
- BRSNN damage rating (100=total damage to plant; 0=no damage to plant) (plants; Rates 500): 0
- CHEAL damage rating (100=total damage to plant; 0=no damage to plant) (plants; Rates 130): 0
- CHEAL damage rating (100=total damage to plant; 0=no damage to plant) (plants; Rates 250): 10
- CHEAL damage rating (100=total damage to plant; 0=no damage to plant) (plants; Rates 500): 40
- GALAP damage rating (100=total damage to plant; 0=no damage to plant) (plants; Rates 130): 0
- GALAP damage rating (100=total damage to plant; 0=no damage to plant) (plants; Rates 250): 0
- GALAP damage rating (100=total damage to plant; 0=no damage to plant) (plants; Rates 500): 20
- HORVW damage rating (100=total damage to plant; 0=no damage to plant) (plants; Rates 130): 0
- HORVW damage rating (100=total damage to plant; 0=no damage to plant) (plants; Rates 250): 0
- HORVW damage rating (100=total damage to plant; 0=no damage to plant) (plants; Rates 500): 0
- KCHSC damage rating (100=total damage to plant; 0=no damage to plant) (plants; Rates 130): 0
- KCHSC damage rating (100=total damage to plant; 0=no damage to plant) (plants; Rates 250): 0
- KCHSC damage rating (100=total damage to plant; 0=no damage to plant) (plants; Rates 500): 0
- LOLPE damage rating (100=total damage to plant; 0=no damage to plant) (plants; Rates 130): 0
- LOLPE damage rating (100=total damage to plant; 0=no damage to plant) (plants; Rates 250): 0
- LOLPE damage rating (100=total damage to plant; 0=no damage to plant) (plants; Rates 500): 0
- POAAN damage rating (100=total damage to plant; 0=no damage to plant) (plants; Rates 130): 0
- POAAN damage rating (100=total damage to plant; 0=no damage to plant) (plants; Rates 250): 0
- POAAN damage rating (100=total damage to plant; 0=no damage to plant) (plants; Rates 500): 0
- POLCO damage rating (100=total damage to plant; 0=no damage to plant) (plants; Rates 130): 0
- POLCO damage rating (100=total damage to plant; 0=no damage to plant) (plants; Rates 250): 0
- POLCO damage rating (100=total damage to plant; 0=no damage to plant) (plants; Rates 500): 0
- SINAR damage rating (100=total damage to plant; 0=no damage to plant) (plants; Rates 130): 0
- SINAR damage rating (100=total damage to plant; 0=no damage to plant) (plants; Rates 250): 0
- SINAR damage rating (100=total damage to plant; 0=no damage to plant) (plants; Rates 500): 0
- STEME damage rating (100=total damage to plant; 0=no damage to plant) (plants; Rates 130): 0
- STEME damage rating (100=total damage to plant; 0=no damage to plant) (plants; Rates 250): 0
- STEME damage rating (100=total damage to plant; 0=no damage to plant) (plants; Rates 500): 0
- VERPE damage rating (100=total damage to plant; 0=no damage to plant) (plants; Rates 130): 0
- VERPE damage rating (100=total damage to plant; 0=no damage to plant) (plants; Rates 250): 0
- VERPE damage rating (100=total damage to plant; 0=no damage to plant) (plants; Rates 500): 20
- damage to plant (100=total damage to plant; 0=no damage to plant), ABUTH (plants; rate 130, evaluated after 15 d): 0
- damage to plant (100=total damage to plant; 0=no damage to plant), ABUTH (plants; rate 250, evaluated after 15 d): 0
- damage to plant (100=total damage to plant; 0=no damage to plant), ABUTH (plants; rate 500, evaluated after 15 d): 10
